Data as given in ChEMBL document CHEMBL1201862, “PubChem BioAssay data set” (2004).
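96-well plates; 48 h exposure; 5 concentrations. Endpoints by linear interpolation between flanking doses. Not reached: highest tested concentration assigned. At the GI50, growth is halved.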 Activity calls are given as the source filed them. Rule as the data show it: active = GI50 up to about 1.1 µM and inactive = higher.

How the values were obtained:
Test in all cases: inhibition of tumour cell growth, NCI panel, 48 h
DMS-273 = tested on: DMS-273
DMS-114 = tested on: DMS-114
XF498 = tested on: XF498
LXFL 529 = tested on: LXFL 529
HOP-18 = tested on: HOP-18
DLD-1 = tested on: DLD-1
KM-20L2 = tested on: KM-20L2
SNB-78 = tested on: SNB-78
RXF 631 = tested on: RXF 631

Compound	GI50 (DMS-273)	GI50 (DMS-114)	GI50 (XF498)	GI50 (LXFL 529)	GI50 (HOP-18)	GI50 (DLD-1)	GI50 (KM-20L2)	GI50 (SNB-78)	GI50 (RXF 631)
COc1ccc(-c2nc(N)n(C)c2SSc2c(-c3ccc(OC)cc3)nc(N)n2C)cc1	3.88 µM (inactive)	2.26 µM (inactive)	2.13 µM (inactive)	1.67 µM (inactive)	5.57 µM (inactive)	4.3 µM (inactive)	12.9 µM (inactive)	–	–
CCOC(=O)c1c(C)c2c(n1C)CCc1c[nH]nc1-2	> 100 µM (inactive)	> 100 µM (inactive)	> 100 µM (inactive)	–	> 100 µM (inactive)	> 100 µM (inactive)	> 100 µM (inactive)	> 100 µM (inactive)	–
O=C1OC(c2ccccc2)=N/C1=C\c1c(O)cc(O)cc1O	94.2 µM (inactive)	> 100 µM (inactive)	–	41 µM (inactive)	> 100 µM (inactive)	–	> 100 µM (inactive)	> 100 µM (inactive)	–
C/N=c1\ss/c(=N\C(=S)N(C)C)n1C1CCCCC1	> 31.6 µM (inactive)	> 31.6 µM (inactive)	> 31.6 µM (inactive)	> 31.6 µM (inactive)	> 31.6 µM (inactive)	> 100 µM (inactive)	> 31.6 µM (inactive)	> 31.6 µM (inactive)	> 100 µM (inactive)
CCOC(=O)c1nc2ccc([N+](=O)[O-])cc2c2c1CCO2	> 100 µM (inactive)	> 100 µM (inactive)	> 100 µM (inactive)	> 100 µM (inactive)	71 µM (inactive)	> 100 µM (inactive)	> 100 µM (inactive)	> 100 µM (inactive)	> 100 µM (inactive)
CC(C)CCS(=O)(=O)OCCCCOS(=O)(=O)CCC(C)C	> 100 µM (inactive)	> 100 µM (inactive)	–	> 100 µM (inactive)	–	> 100 µM (inactive)	> 100 µM (inactive)	> 100 µM (inactive)	–
NNC(=O)/C(NC(=O)c1ccccc1)=C(\N)c1ccc(Cl)cc1	> 100 µM (inactive)	> 100 µM (inactive)	–	> 100 µM (inactive)	> 100 µM (inactive)	> 100 µM (inactive)	> 100 µM (inactive)	> 100 µM (inactive)	–
Cc1c(C(=O)CC(=O)C(=O)NC2C3CC4CC(C3)CC2C4)[n+]([O-])c2ccccc2[n+]1[O-] (stereo not given)	> 100 µM (inactive)	> 100 µM (inactive)	93.5 µM (inactive)	> 100 µM (inactive)	24.4 µM (inactive)	–	> 100 µM (inactive)	> 100 µM (inactive)	> 100 µM (inactive)
c1ccc(OCc2nnc3n2N=C(c2ccccc2)CS3)cc1	> 100 µM (inactive)	> 100 µM (inactive)	> 100 µM (inactive)	> 100 µM (inactive)	–	> 100 µM (inactive)	–	> 100 µM (inactive)	–
CCOC(=O)c1cnc2sc3ccc4ccccc4c3n2c1=O	95.5 µM (inactive)	71.6 µM (inactive)	–	55.2 µM (inactive)	> 100 µM (inactive)	> 100 µM (inactive)	72.1 µM (inactive)	> 100 µM (inactive)	64.6 µM (inactive)
c1ccc(C2=NOC3(c4ccccc4)SC4CCCCC4CN23)cc1 (stereo not given)	32.6 µM (inactive)	15.6 µM (inactive)	52.4 µM (inactive)	13.2 µM (inactive)	26.9 µM (inactive)	40.5 µM (inactive)	39.5 µM (inactive)	34 µM (inactive)	–
O=[N+]([O-])c1ccc2nc(/C(=N\Nc3ccccc3)C(O)c3ccc4c(c3)OCO4)c(O)nc2c1 (stereo not given)	37.7 µM (inactive)	37.4 µM (inactive)	–	50.7 µM (inactive)	–	> 100 µM (inactive)	67 µM (inactive)	> 100 µM (inactive)	> 100 µM (inactive)
COc1ccc2c(c1)[n+]([O-])c(-c1ccc(C)cc1)c(N)[n+]2[O-]	37.7 µM (inactive)	24.9 µM (inactive)	–	59.6 µM (inactive)	> 100 µM (inactive)	> 100 µM (inactive)	36.1 µM (inactive)	70.5 µM (inactive)	–
O=C(Nc1cc(Cl)ccc1Cl)C(=O)C(c1cnc2ccccc2n1)[N+](=O)[O-] (stereo not given)	–	> 100 µM (inactive)	> 100 µM (inactive)	> 100 µM (inactive)	> 100 µM (inactive)	> 100 µM (inactive)	> 100 µM (inactive)	> 100 µM (inactive)	> 100 µM (inactive)
O=C1CCC(=O)C(C(=O)CCC(=O)Nc2ccc(Cl)cc2)C1 (stereo not given)	> 100 µM (inactive)	> 100 µM (inactive)	> 100 µM (inactive)	> 100 µM (inactive)	> 100 µM (inactive)	> 100 µM (inactive)	> 100 µM (inactive)	> 100 µM (inactive)	> 100 µM (inactive)
Clc1ccc(-c2c(C3=NCCCN3)nnn2-c2ccc(Cl)cc2)cc1	60.5 µM (inactive)	21.7 µM (inactive)	22.6 µM (inactive)	29 µM (inactive)	> 100 µM (inactive)	> 68.9 µM (inactive)	29.5 µM (inactive)	43.6 µM (inactive)	–
N#CC1(C#N)C(c2ccc(C3C(C#N)(C#N)C3(C#N)C#N)cc2)C1(C#N)C#N	> 100 µM (inactive)	> 100 µM (inactive)	–	> 100 µM (inactive)	> 100 µM (inactive)	> 100 µM (inactive)	> 100 µM (inactive)	–	–
Nc1ncnc2c(C3OC(CO)C(O)C3O)scc12 (stereo not given)	0.00377 µM (active)	0.0292 µM (active)	0.0282 µM (active)	0.129 µM (active)	< 0.01 µM (active)	0.00212 µM (active)	0.00516 µM (active)	4.31 µM (inactive)	–
O=C1C=C2SC3C[C@@]24CC1[N+]1=c2c4c(c(O)c4c2=C(C=N4)CC1)N3	2.12 µM (inactive)	1.39 µM (inactive)	1.91 µM (inactive)	–	6.49 µM (inactive)	2.07 µM (inactive)	1.92 µM (inactive)	2.61 µM (inactive)	–
CC(C)(c1ccc(OC#N)cc1)c1ccc(OC#N)cc1	–	> 41.5 µM (inactive)	–	> 100 µM (inactive)	> 100 µM (inactive)	> 56.8 µM (inactive)	> 74.6 µM (inactive)	> 100 µM (inactive)	> 100 µM (inactive)
Oc1cc(Cl)ncn1	> 100 µM (inactive)	> 100 µM (inactive)	–	> 100 µM (inactive)	> 100 µM (inactive)	> 100 µM (inactive)	> 100 µM (inactive)	> 100 µM (inactive)	> 100 µM (inactive)
CC1=C2[C@H](c3ccccc3)C3C=CC2(c2ccccc23)N(C(=O)C(c2ccccc2)c2ccccc2)C1=O (stereo not given in full)	> 100 µM (inactive)	> 100 µM (inactive)	> 100 µM (inactive)	> 100 µM (inactive)	> 100 µM (inactive)	> 100 µM (inactive)	> 100 µM (inactive)	–	–
N#C/N=C(\N)NCCO	> 100 µM (inactive)	75.3 µM (inactive)	> 100 µM (inactive)	> 100 µM (inactive)	> 100 µM (inactive)	> 100 µM (inactive)	> 100 µM (inactive)	> 100 µM (inactive)	> 100 µM (inactive)
Oc1cc(O)cc(/C=C/c2ccc(O)c(O)c2)c1 [PICEATANNOL]	12.3 µM (inactive)	5.66 µM (inactive)	–	–	45.5 µM (inactive)	8.57 µM (inactive)	23.4 µM (inactive)	17.9 µM (inactive)	–
Cc1ccc(OC(=O)N2C/C(=C\c3ccccc3)C(=O)/C(=C/c3ccccc3)C2)cc1	4.83 µM (inactive)	15.1 µM (inactive)	26.2 µM (inactive)	9.98 µM (inactive)	> 46.2 µM (inactive)	6.84 µM (inactive)	39.7 µM (inactive)	28.4 µM (inactive)	40.7 µM (inactive)
Cc1c(C2Cc3ccccc3N2C(=O)/C=C\C(=O)O)c2ccccc2n1C (stereo not given)	34.8 µM (inactive)	18.7 µM (inactive)	17.3 µM (inactive)	17.3 µM (inactive)	–	35.9 µM (inactive)	25.1 µM (inactive)	35.5 µM (inactive)	> 100 µM (inactive)
